According to patent publication US20240190866A1, “POLYHYDROXYLATED INDOLIZIDINE AND PYRROLIZIDINE DERIVATIVES AND USES THEREOF” (Academia Sinica, priority 2021, published 2024):

Legend:
HepG2 cells [1] = assay: Surface binding of lectin by fluorescence microscopy; type: cell-based, human; settings: HepG2, 10 μM, 48 h
Huh7 cells [2] = assay: as above; type: cell-based, human; settings: Huh7, 10 μM, 48 h
[3] = test system: all cancer cell lines (HepG2, Huh7, PANC-1, H1975, MDA-MB-231); assay: Anti-proliferative activity, pooled statement over all cancer cell lines; type: cell-based, human; settings: read-out: half maximum inhibitory concentration (IC50), range in all cancer cell lines
Procedure: (§1) Anti-proliferative activity of HepG2, Huh7 or PANC-1 cells was determined by 3-(4,5-dimethylthiazol-2-yl)-2,5-diphenyltetrazolium bromide (MTT) assay, while that of H1975 or MDA-MB-231 cells was determined by luminescent assay with the aid of commercial kit CellTiter-Glo® (Promega).
(§2) Cancer cells including HepG2, Huh7 and PANC-1 cells were respectively seeded at 10^4, 4×10^3, and 5×10^3 cells/well in 96-well plates and maintained for 14-16 hours. Cells were treated with dimethylsulfoxide (DMSO) or test compounds in varied concentrations for 72 h. Cells were then washed with PBS twice, added a medium containing 3-(4,5-dimethylthiazol-2-yl)-2,5-diphenyltetrazolium bromide (MTT) at a final concentration of 0.5 mg/mL, and incubated for 4 h at 37° C. in a humidified incubator containing 5% CO2 in air. Cells having functional succinate dehydrogenase of mithchondria would convert MTT to formazan. Then, the medium was replaced with 100 μL of DMSO for 30 min at room temperature, and the 96-well plate was read by an ELISA reader at 550 nm to get the absorbance density values. The IC50 values of death cell lines were calculated accordingly.
(§3) For H1975 and MDA-MB-231, cells were respectively seeded at 5×10^3 cells/well in 96-well plates and maintained for 14-16 hours. Cells were treated with dimethylsulfoxide (DMSO) or test compounds in varied concentrations for 48 h. Cell viability was monitored using Cell-TiterGlo (Promega), a kit that measures the quantity of ATP present in the cell culture, an indicator of metabolically active cells. The IC50 values of death cell lines were calculated accordingly.

H1975 cells = assay: Anti-proliferative activity assay (CellTiter-Glo); type: cell-based, human; settings: 48 h
Procedure: (§4) Human liver cancer HepG2 cells and Huh7 cells, breast cancer MDA-MB-231 cells, pancreatic cancer PANC-1 cells, and non-small cell lung (NSCL) cancer H1975 cells were maintained in Dulbecco's Modified Eagle Medium supplemented containing 10% fetal bovine serum (FBS), 100 units/ml penicillin and […] streptomycin in 37° C. incubator with 5% CO2.
as §1, §3

MDA-MB-231 cells = assay: Anti-proliferative activity assay (CellTiter-Glo); type: cell-based, human; settings: 48 h
Procedure: as §4, §1, §3

Huh7 cells [4] = assay: N-glycan profiling by mass spectrometric analysis; type: cell-based, human; settings: Huh7, 0.1 to 10 μM, 72 h
Procedure: (§5) To this purpose, HepG2 and Huh7 cells were treated with ACK900 in dose-dependent manner (0.1 to 10 μM) for 72 h and N-glycan profiling was determined using mass spectrometric analysis. (FIGS. 1B and 1C)), This method was based on matching the experimental masses with the predicted masses of the glycans from the CFG carbohydrate database. The individual glycoforms were quantified and calculated for their proportions in all the glycoforms. Most N-glycans of untreated HepG2 and Huh7 were dominated by complex-type glycans containing sialic acids and fucoses. High-mannose or hybrid-type glycans were found in a relatively low percentage. […] These glycoform data from MS analysis were consistent with the surface binding of lectin using fluorescence microscopy.

HepG2 cells [5] = assay: N-glycan profiling by mass spectrometric analysis; type: cell-based, human; settings: HepG2, 0.1 to 10 μM, 72 h
Procedure: as §5

Huh7 cells [6] = assay: Transwell invasion assay; type: cell-based, human
Procedure: (§6) Chemotaxis experiments with human HepG2Huh7, or PANC-1 cells were assayed by using transwells (Millipore). The cells to be analyzed (5×10^4 cells/well) were seeded in the upper chambers of the 24-well plate in 400 μL serum-free medium. FBS (10%) was used as the chemoattractant with or without different concentrations of the test compound (e.g., ACK900, ACK901, ACK902) in the lower chamber, and the plate was incubated under standard conditions. After incubation for 18 hours, the media in the upper chambers were aspirated and washed with phosphate-buffered saline (PBS) twice. Both non-migrated and migrated cells were fixed with 4% paraformaldehyde (PFA) for 30 minutes at room temperature, stained with 2% crystal violet solution. The non-invading cells were removed from the upper surface of the insert membrane with a cotton swab. The images were taken using an imaging reader (Cytation 5, BioTek, VT, U.S.A.) and analyzed using NIH ImageJ software. Percent in the results represent percent of initial number of cells in the migrating and nonmigrating Cell fractions.

PANC-1 cells [7] = assay: Transwell invasion assay; type: cell-based, human; settings: PANC-1, transwell
Procedure: as §6

HepG2 cells [8] = assay: Transwell invasion assay; type: cell-based, human
Procedure: as §6

Huh7 cells [9] = assay: Anti-proliferative activity assay (MTT); type: cell-based, human; settings: 72 h
Procedure: as §4, §1, §2

PANC-1 cells [10] = assay: Anti-proliferative activity assay (MTT); type: cell-based, human; settings: 72 h
Procedure: as §4, §1, §2

HepG2 cells [11] = assay: Anti-proliferative activity assay (MTT); type: cell-based, human; settings: 72 h
Procedure: as §4, §1, §2

Huh7 cells [12] = assay: Transwell migration assay; type: cell-based, human; settings: 18 hours
Procedure: as §6

PANC-1 cells [13] = assay: Transwell migration assay; type: cell-based, human; settings: PANC-1, transwell, 18 hours
Procedure: as §6

HepG2 cells [14] = assay: Transwell migration assay; type: cell-based, human; settings: 18 hours
Procedure: as §6

[15] = target: human lysosomal α-mannosidase (α-hLM) (Homo sapiens (Human), UniProt O00754); assay: α-Mannosidase (α-hLM) activity assay, 4-MU-α-D-mannopyranoside substrate; type: biochemical; settings: pH 4.6, 37° C., 1 h
Chain of human lysosomal α-mannosidase (α-hLM) (O00754 50-1011): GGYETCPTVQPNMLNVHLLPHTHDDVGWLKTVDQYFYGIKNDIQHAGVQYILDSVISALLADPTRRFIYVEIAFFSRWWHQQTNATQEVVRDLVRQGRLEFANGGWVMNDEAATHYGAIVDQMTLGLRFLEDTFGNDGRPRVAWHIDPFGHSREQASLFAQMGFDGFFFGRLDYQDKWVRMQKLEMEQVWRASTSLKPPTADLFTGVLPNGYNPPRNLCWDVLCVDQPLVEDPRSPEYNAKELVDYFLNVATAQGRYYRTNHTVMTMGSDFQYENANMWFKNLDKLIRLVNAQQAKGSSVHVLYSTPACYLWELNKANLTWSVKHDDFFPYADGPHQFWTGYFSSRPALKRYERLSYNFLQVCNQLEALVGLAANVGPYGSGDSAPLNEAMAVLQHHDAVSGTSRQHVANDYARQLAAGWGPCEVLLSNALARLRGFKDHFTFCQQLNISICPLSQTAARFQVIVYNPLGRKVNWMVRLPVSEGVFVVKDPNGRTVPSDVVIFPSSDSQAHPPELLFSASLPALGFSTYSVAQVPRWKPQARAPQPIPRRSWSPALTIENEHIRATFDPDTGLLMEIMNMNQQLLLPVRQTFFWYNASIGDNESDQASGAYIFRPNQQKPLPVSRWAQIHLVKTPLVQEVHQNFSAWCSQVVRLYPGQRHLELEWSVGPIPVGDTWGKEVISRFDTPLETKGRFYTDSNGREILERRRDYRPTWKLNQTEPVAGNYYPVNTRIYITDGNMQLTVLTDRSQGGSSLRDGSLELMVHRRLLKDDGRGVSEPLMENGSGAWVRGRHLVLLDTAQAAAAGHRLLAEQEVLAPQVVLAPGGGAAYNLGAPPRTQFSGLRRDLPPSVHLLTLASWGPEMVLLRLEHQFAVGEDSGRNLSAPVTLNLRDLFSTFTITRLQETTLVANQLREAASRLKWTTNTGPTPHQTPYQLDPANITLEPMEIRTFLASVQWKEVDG
Procedure: Compounds were diluted to give the final concentration of 100 μM and mixed with 4-MU-α-D-mannopyranoside as substrate and human Golgi α-mannosidase II in phosphate buffer (0.1 M Sodium phosphate dibasic, pH 7.0) or human lysosomal α-mannosidase in citric phosphate buffer (0.1 M Sodium phosphate monobasic monohydrate, 0.5 mM citric acid monohydrate, pH 4.6). The assay was carried out at 37° C. for a certain time (1 h for α-hLM, 2 h for α-hGMII). Stop solution (0.5 M K2CO3(aq), pH 10.8) was then added to the reactions and the fluorescence was determined at 355 nm excitation and 460 nm emission (SpectraMax M5, Molecular Devices). Inhibition was performed as relative enzyme activity to control. The active compounds were selected for libraries preparation and further tested at lower concentration to determine their IC50 values. The assays performed in 384-wells of the microtiter plates.

## CCC[C@H]1CC[C@H](c2ccc(NC(=S)NC[C@@H]3[C@@H](O)[C@@H](O)[C@H]4[C@H](O)CCCN43)cc2)CC1 [ACK900]
HepG2 cells [1]
  surface binding of Concanavalin A (ConA): markedly increased
  surface binding of galectin-1 (Gal1): substantially decreased
Huh7 cells [2]
  surface binding of Concanavalin A (ConA): markedly increased
  surface binding of galectin-1 (Gal1): substantially decreased
[3]
  IC50: 0.3 to 19.1 µM
H1975 cells
  IC50: 13.9 µM
MDA-MB-231 cells
  IC50: 4.6 µM
Huh7 cells [4]
  N-glycan pattern: significant shift of N-glycopatterns from complex chains to the hybrid-type glycan
HepG2 cells [5]
  N-glycan pattern: significant shift of N-glycopatterns from complex chains to the hybrid-type glycan
Huh7 cells [6]
  invasive capability: remarkably decreased
PANC-1 cells [7]
  invasive capability: remarkably decreased
HepG2 cells [8]
  invasive capability: remarkably decreased
Huh7 cells [9]
  IC50: 7.8 µM
PANC-1 cells [10]
  IC50: 14.5 µM
HepG2 cells [11]
  IC50: 5.9 µM
Huh7 cells [12]
  migratory capability: remarkably decreased
PANC-1 cells [13]
  migratory capability: remarkably decreased
HepG2 cells [14]
  migratory capability: remarkably decreased
[15]
  IC50: 14 µM
